Where a name gives a salt, the structure may show the parent alone.
target: T1, NLRP3 inflammasome (Homo sapiens, UniProt Q96P20); experiment: THP-1 IL-1β production inhibition test; type: cell-based; conditions: PMA-treated THP-1 cells, LPS 50 ng/mL + ATP 5 mM, 2 hours, IL-1β in supernatant by ELISA
T1 construct: endogenous in cells; host or cells: THP-1 cells (PMA-differentiated, stimulated with LPS and ATP)
Description: PMA (phorbol myristate acetate, SIGMA, P1585) was added to THP-1 cells in an amount of 50 ng/mL to culture the cells for 2 days at 37° C. […] LPS (Lipopolysaccharide, SIMGA, L2880) and ATP (Adenosine triphosphate, SIGMA, A2383) were added so that final concentrations become 50 ng/mL and 5 mM, respectively, followed by culturing at 37° C. for 2 hours. The supernatants were collected to measure the concentrations of IL-1β by ELISA (DuoSet ELISA human IL-1β, R&D Systems, DY201). The IL-1β concentrations were plotted against log concentrations of test compounds, and an IC50 value was calculated by sigmoid Emax model nonlinear regression analysis.

T1 sequence (Q96P20 whole entry): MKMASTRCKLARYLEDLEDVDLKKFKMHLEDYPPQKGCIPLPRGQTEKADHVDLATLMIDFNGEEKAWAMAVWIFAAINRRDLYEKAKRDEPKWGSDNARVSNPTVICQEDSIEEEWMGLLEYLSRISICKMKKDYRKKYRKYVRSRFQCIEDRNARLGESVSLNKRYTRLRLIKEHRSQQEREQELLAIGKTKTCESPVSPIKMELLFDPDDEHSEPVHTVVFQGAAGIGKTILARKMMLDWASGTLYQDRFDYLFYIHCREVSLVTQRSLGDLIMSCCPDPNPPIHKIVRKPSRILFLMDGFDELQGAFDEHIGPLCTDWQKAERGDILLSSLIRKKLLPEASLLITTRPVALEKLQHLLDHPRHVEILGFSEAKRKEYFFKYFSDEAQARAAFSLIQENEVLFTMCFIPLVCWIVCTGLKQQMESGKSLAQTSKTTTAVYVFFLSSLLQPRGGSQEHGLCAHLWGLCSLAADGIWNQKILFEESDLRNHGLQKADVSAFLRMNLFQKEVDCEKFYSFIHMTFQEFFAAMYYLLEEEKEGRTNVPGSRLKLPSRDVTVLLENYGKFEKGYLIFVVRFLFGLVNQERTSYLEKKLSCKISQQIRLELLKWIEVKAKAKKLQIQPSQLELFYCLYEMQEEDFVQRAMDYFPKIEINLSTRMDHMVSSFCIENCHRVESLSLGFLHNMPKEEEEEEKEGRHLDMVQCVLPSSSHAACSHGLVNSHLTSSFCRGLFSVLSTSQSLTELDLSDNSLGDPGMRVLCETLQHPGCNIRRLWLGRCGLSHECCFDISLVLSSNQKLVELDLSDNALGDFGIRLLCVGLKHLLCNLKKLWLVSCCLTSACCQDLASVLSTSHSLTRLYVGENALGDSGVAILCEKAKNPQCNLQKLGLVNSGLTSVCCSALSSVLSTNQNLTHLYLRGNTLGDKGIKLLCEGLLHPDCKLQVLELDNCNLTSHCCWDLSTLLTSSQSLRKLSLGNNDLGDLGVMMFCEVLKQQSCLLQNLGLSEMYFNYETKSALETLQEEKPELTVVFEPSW

Point of comparison: Oc1cc(C(F)(F)F)ccc1-c1nnc(N[C@@H]2CCC[C@H](O)C2)c2c1CCOC2 [Example 104], IC50 3.5 nM. Against it:
- C[C@@H](O)CNc1nnc(-c2ccc(C(F)(F)F)cc2C(F)(F)F)c2c1CN(S(C)(=O)=O)CC2 [Example 80, (2R)-1-({1-[2,4-bis(trifluoromethyl)phenyl]-6-(methanesulfonyl)-5,6,7,8-tetrahydropyrido[3,4-d]pyridazin-4-yl}amino)propan-2-ol] — 1500-fold higher, 5200 nM
- CC(=O)NCCCCOc1nnc(-c2ccc(C(F)(F)F)cc2O)c2ccccc12 [Example 81, N-[4-({4-[2-hydroxy-4-(trifluoromethyl)phenyl]phthalazin-1-yl}oxy)butyl]acetamide] — 9.4-fold higher, 33 nM
- N[C@@H]1CCCC[C@H]1Nc1nnc(-c2ccc(C(F)(F)F)cc2O)c2ccccc12 [Example 82, 2-(4-{[(1R,2R)-2-aminocyclohexyl]amino}phthalazin-1-yl)-5-(trifluoromethyl)phenol dihydrochloride] — 8-fold higher, 28 nM
- Oc1cc(C(F)F)ccc1-c1nnc(N[C@@H]2CCCC[C@H]2O)c2c1CCCC2 [Example 84] — 5.1-fold higher, 18 nM
- Oc1cc(C(F)(F)F)c(F)cc1-c1nnc(N[C@@H]2CCCC[C@H]2O)c2c1CCCC2 [Example 85] — 17-fold higher, 58 nM
- Oc1cc(C(F)(F)F)c(F)cc1-c1nnc(N[C@@H]2CCCC[C@H]2O)c2c1CCOC2 [Example 86] — 3.1-fold higher, 11 nM
- Oc1cc(C(F)F)ccc1-c1nnc(N[C@@H]2CCCC[C@H]2O)c2c1CCOC2 [Example 87] — 1.9-fold higher, 6.5 nM
- C[C@@]1(O)CCCC[C@H]1Nc1nnc(-c2ccc(OC(F)F)cc2O)c2c1CCCC2 [Example 89] — 8.9-fold higher, 31 nM
- Oc1cc(C(F)(F)F)ccc1-c1nnc(N[C@@H]2CCCC[C@H]2O)c2c1CCNC2 [Example 90, 2-(4-{[(1R,2R)-2-hydroxycyclohexyl]amino}-5,6,7,8-tetrahydropyrido[3,4-d]pyridazin-1-yl)-5-(trifluoromethyl)phenol dihydrochloride] — 3.4-fold higher, 12 nM
- Oc1cc(C(F)(F)F)ccc1-c1nnc(N[C@@H]2CCCC[C@H]2O)c2c1CNCC2 [Example 91] — 160-fold higher, 560 nM
- CC(=O)N1CCc2c(-c3ccc(C(F)(F)F)cc3O)nnc(N[C@@H]3CCCC[C@H]3O)c2C1 [Example 92, 1-[4-{[(1R,2R)-2-hydroxycyclohexyl]amino}-1-[2-hydroxy-4-(trifluoromethyl)phenyl]-7,8-dihydropyrido[3,4-d]pyridazin-6(5H)-yl]ethan-1-one] — 13-fold higher, 47 nM
- CS(=O)(=O)N1CCc2c(-c3ccc(C(F)(F)F)cc3O)nnc(N[C@@H]3CCCC[C@H]3O)c2C1 [Example 93, 2-[4-{[(1R,2R)-2-hydroxycyclohexyl]amino}-6-(methanesulfonyl)-5,6,7,8-tetrahydropyrido[3,4-d]pyridazin-1-yl]-5-(trifluoromethyl)phenol] — 57-fold higher, 200 nM
- Oc1cc(C(F)(F)F)ccc1-c1nnc(N[C@@H]2CCCC[C@H]2O)c2sccc12 [Example 94, 2-(7-{[(1R,2R)-2-hydroxycyclohexyl]amino}thieno[2,3-d]pyridazin-4-yl)-5-(trifluoromethyl)phenol] — within 1.5-fold, 5.1 nM
- N[C@@H]1CCCC[C@H]1Nc1nnc(-c2ccc(C(F)(F)F)cc2O)c2c1CCOC2 [Example 95, 2-(1-{[(1R,2R)-2-aminocyclohexyl]amino}-7,8-dihydro-5H-pyrano[3,4-d]pyridazin-4-yl)-5-(trifluoromethyl)phenol] — 17-fold higher, 61 nM
- Oc1cc(C(F)(F)F)ccc1-c1nnc(N[C@@H]2CCCNC2)c2c1CCCC2 [Example 96, 2-(4-{[(3R)-piperidin-3-yl]amino}-5,6,7,8-tetrahydrophthalazin-1-yl)-5-(trifluoromethyl)phenol] — 13-fold higher, 45 nM
- Oc1cc(C(F)(F)F)ccc1-c1nnc(N[C@@H]2CCCN(C3COC3)C2)c2c1CCCC2 [Example 97, 2-(4-{[(3R)-1-(oxetan-3-yl)piperidin-3-yl]amino}-5,6,7,8-tetrahydrophthalazin-1-yl)-5-(trifluoromethyl)phenol] — within 1.5-fold, 3.4 nM
- Oc1cc(C(F)(F)F)ccc1-c1nnc(N[C@@H]2CCCC[C@H]2O)c2c1CNC2 [Example 98, 2-(4-{[(1R,2R)-2-hydroxycyclohexyl]amino}-6,7-dihydro-5H-pyrrolo[3,4-d]pyridazin-1-yl)-5-(trifluoromethyl)phenol] — 27-fold higher, 95 nM
- Oc1cc(C(F)(F)F)ccc1-c1nnc(N[C@@H]2CCCC[C@H]2O)c2c1CSCC2 [Example 102] — within 1.5-fold, 5.1 nM
- Oc1cc(C(F)(F)F)ccc1-c1nnc(N[C@@H]2CCCC[C@H]2O)c2c1CCSC2 [Example 103] — within 1.5-fold, 4.4 nM
- CN1CCC[C@@H](Nc2nnc(-c3ccc(C(F)(F)F)cc3O)c3c2CCOCC3)C1 [Example 105] — 2.5-fold higher, 8.9 nM
- Oc1cc(OC(F)(F)F)ccc1-c1nnc(N[C@@H]2CCC[C@H](O)C2)c2c1CCOC2 [Example 106] — within 1.5-fold, 4.8 nM
- Oc1cc(C(F)(F)F)ccc1-c1nnc(N[C@@H]2CCCC[C@H]2O)c2c1CCC1(COC1)C2 [Example 107] — within 1.5-fold, 3.6 nM
- CN1CCC[C@@H](Nc2nnc(-c3ccc(Cl)cc3O)c3c2COCC3)C1 [Example 109] — 2.3-fold lower, 1.5 nM
- COc1ccc(-c2nnc(N[C@@H]3CCCN(C)C3)c3c2CCOC3)c(O)c1 [Example 110] — 2.5-fold lower, 1.4 nM
- CN1CCC[C@@H](Nc2nnc(-c3ccc(C4CC4)cc3O)c3c2COCC3)C1 [Example 112, 5-cyclopropyl-2-(4-{[(3R)-1-methylpiperidin-3-yl]amino}-7,8-dihydro-5H-pyrano[3,4-d]pyridazin-1-yl)phenol] — 2.7-fold lower, 1.3 nM
- CN1CCC[C@@H](Nc2nnc(-c3ccc(C(F)F)cc3O)c3c2COCC3)C1 [Example 113] — 2.9-fold lower, 1.2 nM
- Oc1cc(C(F)F)ccc1-c1nnc(N[C@@H]2CCC[C@H](O)C2)c2c1COC2 [Example 114, 5-(difluoromethyl)-2-(4-{[(1R,3S)-3-hydroxycyclohexyl]amino}-5,7-dihydrofuro[3,4-d]pyridazin-1-yl)phenol] — 4.3-fold higher, 15 nM
- Oc1cc(C(F)F)ccc1-c1nnc(N[C@@H]2CCCC[C@H]2O)c2c1COC2 [Example 115] — 3.1-fold higher, 11 nM
- Oc1cc(OC(F)F)ccc1-c1nnc(N[C@@H]2CCCC[C@H]2O)c2c1CCCOC2 [Example 116] — within 1.5-fold, 4.4 nM
- CC(=O)N1Cc2c(N[C@@H]3CCCC[C@H]3O)nnc(-c3ccc(C(F)(F)F)cc3O)c2C1 [Example 117, 1-(1-{[(1R,2R)-2-hydroxycyclohexyl]amino}-4-[2-hydroxy-4-(trifluoromethyl)phenyl]-5,7-dihydro-6H-pyrrolo[3,4-d]pyridazin-6-yl)ethan-1-one] — 37-fold higher, 130 nM
- CC(=O)NCCCCNc1nnc(-c2ccc(C(F)(F)F)cc2O)c2c1COCC2 [Example 118] — within 1.5-fold, 4.8 nM
- CC(=O)N1CCC[C@@H](Nc2nnc(-c3ccc(C(F)(F)F)cc3O)c3c2CSC3)C1 [Example 119] — 1.7-fold higher, 6 nM
- CN1CCC[C@@H](Nc2nnc(-c3ccc(OC(F)F)cc3O)c3c2CCOC3)C1 [Example 120] — 3.5-fold lower, 1 nM
- CN1CCC[C@@H](Nc2nnc(-c3ccc(C(F)(F)F)cc3O)c3c2CSC3)C1 [Example 121] — 2.4-fold higher, 8.5 nM
- CN1CCC[C@@H](Nc2nnc(-c3ccc(C(F)(F)F)cc3O)c3c2CSC3(C)C)C1 [Example 123] — 13-fold higher, 47 nM
- Oc1cc(C(F)(F)F)ccc1-c1nnc(N[C@@H]2CCCN(C3CC3)C2)c2c1CSC2 [Example 126, 2-(4-{[(3R)-1-cyclopropylpiperidin-3-yl]amino}-5,7-dihydrothieno[3,4-d]pyridazin-1-yl)-5-(trifluoromethyl)phenol] — 2-fold higher, 7.1 nM
- Oc1cc(OC(F)(F)F)ccc1-c1nnc(N[C@@H]2CCCC[C@@H]2O)c2c1CCOC2 [Example 127, 2-(4-{[(1R,2S)-2-hydroxycyclohexyl]amino}-7,8-dihydro-5H-pyrano[3,4-d]pyridazin-1-yl)-5-(trifluoromethoxy)phenol] — 1.6-fold higher, 5.6 nM
- CN1CCC[C@@H](Nc2nnc(-c3ccc(OC(F)(F)F)cc3O)c3c2COCC3)C1 [Example 128, 2-(4-{[(3R)-1-methylpiperidin-3-yl]amino}-7,8-dihydro-5H-pyrano[3,4-d]pyridazin-1-yl)-5-(trifluoromethoxy)phenol] — within 1.5-fold, 3.3 nM
- O=S1(=O)CCc2c(-c3ccc(C(F)(F)F)cc3O)nnc(N[C@@H]3CCCC[C@H]3O)c2C1 [Example 129, 4-{[(1R,2R)-2-hydroxycyclohexyl]amino}-1-[2-hydroxy-4-(trifluoromethyl)phenyl]-7,8-dihydro-6λ^6-thiopyrano[3,4-d]pyridazin-6,6(5H)-dione] — 25-fold higher, 86 nM
- O=S1(=O)CCc2c(N[C@@H]3CCCC[C@H]3O)nnc(-c3ccc(C(F)(F)F)cc3O)c2C1 [Example 130] — 6.3-fold higher, 22 nM
- CC1(C)SCc2c(N[C@@H]3CCCN(CC(F)F)C3)nnc(-c3ccc(C(F)(F)F)cc3O)c21 [Example 132, 2-(4-{[(3R)-1-(2,2-difluoroethyl)piperidin-3-yl]amino}-7,7-dimethyl-5,7-dihydrothieno[3,4-d]pyridazin-1-yl)-5-(trifluoromethyl)phenol] — 27-fold higher, 95 nM
- Oc1cc(C(F)(F)F)ccc1-c1nnc(N[C@@H]2CCCC[C@H]2O)c2c1CCOC2 [Example 133, 2-(4-{[(1R,2R)-2-hydroxycyclohexyl]amino}-7,8-dihydro-5H-pyrano[3,4-d]pyridazin-1-yl)-5-(trifluoromethyl)phenol monohydrochloride] — 2.7-fold lower, 1.3 nM
- Oc1cc(C(F)(F)F)ccc1-c1nnc(N[C@@H]2CCCC[C@H]2O)c2c1CCCC2 [Example 134, 2-(4-{[(1R,2R)-2-hydroxycyclohexyl]amino}-5,6,7,8-tetrahydrophthalazin-1-yl)-5-(trifluoromethyl)phenol monohydrochloride] — within 1.5-fold, 4.6 nM

Reference: US20250084092A1, “ANNULATED PYRIDAZINE COMPOUND” (Nico Therapeutics, Inc., priority 2021, published 2025)
